Test results published in US20180303845A1, “USE OF TLR8 AGONISTS TO TREAT CANCER” (VentiRx Pharmaceuticals, Inc., priority 2015, published 2018).

Key:
HNC = settings: cited from earlier work
PBMC = PBMC cytokine release, multiplex cytokine assay; format: cell-based
Protocol: (§1) PBMC cytokine release was also measured using a multiplex cytokine assay. FcγR III-158 genotype was determined using a quantitative PCR-based assay kit. Significant differences in ADCC by FcγR Ma or TLR8 genotype were determined using a Kruskal-Wallis one-way analysis of variance, and a post hoc Mann-Whitney non-parametric t test was performed for differences between groups. For cytokine analysis, a Mann-Whitney non-parametric test was performed.

EGFR^| UM-22B HNC cells = assay: 51Cr release assay of cetuximab-mediated ADCC by motolimod-pre-treated PBMC or isolated NK; format: cell-based
Protocol: as §1

[1] = test system: recurrent or metastatic SCCHN; settings: cited from earlier work

CCCN(CCC)C(=O)C1=Cc2ccc(-c3ccc(C(=O)N4CCCC4)cc3)cc2N=C(N)C1 [motolimod, 2-amino-N,N-dipropyl-8-[4-(pyrrolidin-1-ylcarbonyl)phenyl]-3H-1-benzazepine-4-carboxamide]
cetuximab-mediated ADCC and DC IVS of CD8^+ T cells in HNC (HNC; in vitro): significantly enhances | DC maturation and cross-priming of CD8^+ cells (HNC; motolimod in combination with cetuximab): enhances | IFN-γ secretion, treated versus untreated PBMC (PBMC; p<0.0001): significantly higher levels | TNF-α secretion, treated versus untreated PBMC (PBMC; p<0.0001): significantly higher levels | IL-12p40 secretion, treated versus untreated PBMC (PBMC; p=0.0002): significantly higher levels | IL-12p70 secretion, treated versus untreated PBMC (PBMC; p=0.03): significantly higher levels | cetuximab-mediated ADCC by TLR8 stimulated PBMC from HNC patients (EGFR^| UM-22B HNC cells; PBMC from HNC patients, p=0.0262): more avid effectors | enhancement of ADCC lytic activity in NK, FcγR IIIc FF genotype (EGFR^| UM-22B HNC cells; motolimod 250 nM 18 hr pre-treatment, cetuximab 10 μg/mL, 4 hr, FF genotype): 2.6 fold | enhancement of ADCC lytic activity in NK, VF genotype (EGFR^| UM-22B HNC cells; motolimod 250 nM 18 hr pre-treatment, cetuximab 10 μg/mL, 4 hr, VF genotype): 1.7 fold | enhancement of ADCC lytic activity in NK, VV genotype (EGFR^| UM-22B HNC cells; motolimod 250 nM 18 hr pre-treatment, cetuximab 10 μg/mL, 4 hr, VV genotype): 1.8 fold | cetuximab-mediated ADCC against HNC cells (EGFR^| UM-22B HNC cells; summary statement): enhanced | clinical activity (pharmacologic evidence) ([1]; in combination with cetuximab, escalating doses of motolimod): dose-dependent clinical activity | safety profile ([1]; motolimod days 1, 8, 15 in combination with weekly cetuximab, 28-day cycles): acceptable safety profile
